Measured values reported in patent publication US20110045101A1, “FUNGICIDAL SUBSTITUTED AZOLES” (E.I. Du Pont De Nemours and Company, priority 2009, published 2011).
Where two headings read alike, the source gives them in different places.

Tests used:
Plasmopara viticola = experiment: Test A: grape downy mildew, test suspension sprayed after inoculation of grape seedlings, visual disease rating; format: in vivo; conditions: 200 ppm, 100 = 100% disease control
Excerpt: General protocol for preparing test suspensions for Tests A-J: The test compounds were first dissolved in acetone in an amount equal to 3% of the final volume and then suspended at the desired concentration (in ppm) in acetone and purified water (50/50 mix) containing 250 ppm of the surfactant Trem® 014 (polyhydric alcohol esters). The resulting test suspensions were then used in tests A-J. Spraying a 200 ppm test suspension to the point of run-off on the test plants was the equivalent of a rate of 500 g/ha. […] Grape seedlings were inoculated with a spore suspension of Plasmopara viticola (the causal agent of grape downy mildew) and incubated in a saturated atmosphere at 20° C. for 24 h. After a short drying period, the grape seedlings were sprayed with the test suspension to the point of run-off and then moved to a growth chamber at 20° C. for 5 days, after which time the grape seedlings were placed back into a saturated atmosphere at 20° C. for 24 h. Upon removal, visual disease ratings were made. […] A dash (-) indicates no test results.

Rhizoctonia solani = experiment: Test B: turf brown patch on bentgrass seedlings, sprayed the day before inoculation, visual disease rating; format: in vivo; conditions: 200 ppm, 100 = 100% disease control
Excerpt: General protocol for preparing test suspensions for Tests A-J: The test compounds were first dissolved in acetone in an amount equal to 3% of the final volume and then suspended at the desired concentration (in ppm) in acetone and purified water (50/50 mix) containing 250 ppm of the surfactant Trem® 014 (polyhydric alcohol esters). The resulting test suspensions were then used in tests A-J. Spraying a 200 ppm test suspension to the point of run-off on the test plants was the equivalent of a rate of 500 g/ha. […] The test suspension was sprayed to the point of run-off on bentgrass (Agrostis sp.) seedlings. […] A dash (-) indicates no test results. All results are for 200 ppm except where followed by “*”, which indicates 40 ppm.

Botrytis cinerea = experiment: Test C: tomato Botrytis on tomato seedlings, sprayed the day before inoculation, visual disease rating; format: in vivo; conditions: 100 = 100% disease control; for Test C disease control rating / pest or weed control at 200 ppm: 200 ppm
How it was run: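 Disease ratings refer to tomato seedlings treated by run-off spraying with compound suspensions, mostly 200 ppm (500 g/ha equivalent) and in marked cases 40 ppm. Carrier: acetone/purified water 50/50 with 250 ppm polyhydric alcohol ester surfactant, after predissolving in acetone.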

Alternaria solani = experiment: Test D: tomato early blight, sprayed the day before inoculation, visual disease rating; format: in vivo; conditions: 100 = 100% disease control; for Test D disease control rating / pest or weed control at 200 ppm: 200 ppm
How it was run: (§1)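 Acetone solution (3% of final volume) of each compound is suspended in 50/50 acetone/water with 250 ppm Trem® 014. Plants are sprayed to run-off at 200 ppm, equivalent to 500 g/ha, or at 40 ppm for starred values.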

Phytophthora infestans = format: in vivo; conditions: 200 ppm, 100 = 100% disease control
Septoria nodorum = experiment: Test F: wheat glume blotch on wheat seedlings, sprayed the day before inoculation, visual disease rating; format: in vivo; conditions: 100 = 100% disease control; for Test F disease control rating / pest or weed control at 200 ppm: 200 ppm
How it was run: as §1

Septoria tritici = experiment: Test G: wheat leaf blotch on wheat seedlings, sprayed the day before inoculation, visual disease rating; format: in vivo; conditions: 100 = 100% disease control; for Test G disease control rating / pest or weed control at 200 ppm: 200 ppm
How it was run: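 Wheat seedlings were sprayed to run-off with test suspension (acetone/water plus surfactant), generally 200 ppm (≈500 g/ha), or 40 ppm where marked. Septoria tritici spores were inoculated the next day; plants were held 48 h at 24°C in saturated atmosphere, then 19 days at 20°C before visual disease rating.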

[1] = tested on: Puccinia recondita f. sp. tritici; experiment: Test I: wheat leaf rust on wheat seedlings, sprayed the day before inoculation, visual disease rating; format: in vivo; conditions: 100 = 100% disease control; for Test I disease control rating / pest or weed control at 200 ppm: 200 ppm
How it was run: as §1

[2] = tested on: Erysiphe graminis f. sp. tritici; experiment: Test J: wheat powdery mildew on wheat seedlings, sprayed the day before inoculation, visual disease rating; format: in vivo; conditions: 100 = 100% disease control; for Test J disease control rating / pest or weed control at 200 ppm: 200 ppm
How it was run: as §1

[3] = 0 = no control relative to controls
[4] = Botrytis cinerea, 120 h, 0 = no control relative to controls
[5] = Alternaria solani, 168 h, 0 = no control relative to controls
[6] = Parastagonospora nodorum, 264 h, 0 = no control relative to controls
[7] = Zymoseptoria tritici, 504 h, 0 = no control relative to controls
[8] = Puccinia recondita, 168 h, 0 = no control relative to controls
[9] = Blumeria graminis, 168 h, 0 = no control relative to controls

Row | Compound | Test B disease control rating (Rhizoctonia solani; [3]) [%] | pest or weed control at 200 ppm (Botrytis cinerea; [4]) [%] | pest or weed control at 200 ppm (Alternaria solani; [5]) [%] | pest or weed control at 200 ppm (Septoria nodorum; [6]) [%] | pest or weed control at 200 ppm (Septoria tritici; [7]) [%] | pest or weed control at 200 ppm [1, 8] [%] | pest or weed control at 200 ppm [2, 9] [%] | melting point [°C] | Test A disease control rating (Plasmopara viticola; [3]) [%] | Test C disease control rating (Botrytis cinerea; [3]) [%] | Test D disease control rating (Alternaria solani; [3]) [%] | Test E disease control rating (Phytophthora infestans; [3]) [%] | Test F disease control rating (Septoria nodorum; [3]) [%] | Test G disease control rating (Septoria tritici; [3]) [%] | Test I disease control rating [1, 3] [%] | Test J disease control rating [2, 3] [%] | also measured
1 | Fc1ccc(-c2c(Cl)ncn2-c2ccc(Cl)c(F)c2)c(Cl)c1 [compound 191] | – | – | – | – | – | – | – | – | – | – | – | – | – | – | – | – | Test A disease control rating (Plasmopara viticola; 0 = no control): 0%; Test B disease control rating (Rhizoctonia solani; 0 = no control): 0%; Test C disease control rating (Botrytis cinerea; 0 = no control): 99%; Test D disease control rating (Alternaria solani; 0 = no control): 26%; Test E disease control rating (Phytophthora infestans; 0 = no control): 29%; Test F disease control rating (Septoria nodorum; 0 = no control): 0%; Test G disease control rating (Septoria tritici; 0 = no control): 97%; Test I disease control rating ([1]; 0 = no control): 80%; Test J disease control rating ([2]; 0 = no control): 93%
2 | Fc1cc(-n2cnc(Cl)c2-c2c(F)cccc2Cl)ccc1Cl [compound 192] | – | – | – | – | – | – | – | – | – | – | – | – | – | – | – | – | Test A disease control rating (Plasmopara viticola; 0 = no control): 0%; Test B disease control rating (Rhizoctonia solani; 0 = no control): 21%; Test C disease control rating (Botrytis cinerea; 0 = no control): 99%; Test D disease control rating (Alternaria solani; 0 = no control): 16%; Test E disease control rating (Phytophthora infestans; 0 = no control): 0%; Test F disease control rating (Septoria nodorum; 0 = no control): 0%; Test G disease control rating (Septoria tritici; 0 = no control): 94%; Test I disease control rating ([1]; 0 = no control): 84%; Test J disease control rating ([2]; 0 = no control): 99%
3 | Cc1nc(Cl)c(-c2c(F)cccc2F)n1-c1ccc(Cl)cc1 [Compound 2, 4-chloro-1-(4-chlorophenyl)-5-(2,6-difluorophenyl)-2-methyl-1H-imidazole] | 65 | 99 | 100 | 100 | 100 | 100 | 100 | 143 to 145 | – | – | – | – | – | – | – | – | –
4 | Cc1ccc(-n2cnc(Cl)c2-c2ccc(F)cc2Cl)cc1 [compound 179] | – | – | – | – | – | – | – | – | – | – | – | – | – | – | – | – | Test A disease control rating (Plasmopara viticola; 0 = no control): 0%; Test B disease control rating (Rhizoctonia solani; 0 = no control): 0%; Test C disease control rating (Botrytis cinerea; 0 = no control): 99%; Test D disease control rating (Alternaria solani; 0 = no control): 9%; Test E disease control rating (Phytophthora infestans; 0 = no control): 0%; Test F disease control rating (Septoria nodorum; 0 = no control): 0%; Test G disease control rating (Septoria tritici; 0 = no control): 98%; Test I disease control rating ([1]; 0 = no control): 99%; Test J disease control rating ([2]; 0 = no control): 99%
5 | COc1cc(F)c(-c2c(-c3ccc(F)cc3)c(OC)nn2C)c(F)c1 [compound 579] | 92 | – | – | – | – | – | – | – | 0 | 99 | 97 | 0 | 0 | 100 | 93 | 100 | –
6 | COc1cc(F)c(-c2c(-c3ccc(Cl)cc3)c(OC)nn2C)c(F)c1 [compound 578] | 58 | – | – | – | – | – | – | – | 0 | 98 | 37 | 0 | 0 | 100 | 74 | 98 | –
7 | Cc1ncc(-c2ccc(F)cc2)n1-c1ccc(Cl)cc1 [Compound 4, 1-(4-chlorophenyl)-5-(4-fluorophenyl)-2-methyl-1H-imidazole] | 18 | 67 | 0 | 0 | 93 | 79 | 94 | – | 0 | – | – | 0 | – | – | – | – | –
8 | Fc1cc(F)c(-c2c(Cl)ncn2-c2ccc(Cl)cc2)c(F)c1 [Compound 1, 4-chloro-1-(4-chlorophenyl)-5-(2,4,6-trifluorophenyl)-1H-imidazole] | – | – | – | – | – | – | – | 102 to 104 | – | – | – | – | – | – | – | – | pest or weed control at 40 ppm (Botrytis cinerea; Botrytis cinerea, 120 h, 40 ppm (marked *)): 99%; pest or weed control at 40 ppm (Alternaria solani; Alternaria solani, 168 h, 40 ppm (marked *)): 94%; pest or weed control at 40 ppm (Septoria nodorum; Parastagonospora nodorum, 264 h, 40 ppm (marked *)): 0%; pest or weed control at 40 ppm (Septoria tritici; Zymoseptoria tritici, 504 h, 40 ppm (marked *)): 93%; pest or weed control at 40 ppm ([1]; Puccinia recondita, 168 h, 40 ppm (marked *)): 16%; pest or weed control at 40 ppm ([2]; Blumeria graminis, 168 h, 40 ppm (marked *)): 99%
9 | Fc1cccc(F)c1-c1c(Cl)nc(Cl)n1-c1ccc(Cl)cc1 [Compound 3, 2,4-dichloro-1-(4-chlorophenyl)-5-(2,6-difluorophenyl)-1H-imidazole] | 99 | 99 | 100 | 99 | 100 | 99 | 100 | 123 to 125 | – | – | – | – | – | – | – | – | –
10 | Fc1cc(F)c(-c2c(Cl)nc(Cl)n2-c2ccc(Cl)cc2)c(F)c1 [Compound 6, 2,4-dichloro-1-(4-chlorophenyl)-5-(2,4,6-trifluorophenyl)-1H-imidazole] | 99 | 99 | 100 | 95 | 100 | 100 | 100 | 112 to 119 | 0 | – | – | 0 | – | – | – | – | –
11 | Cc1nn(C)c(-c2ccc(Cl)c(F)c2)c1-c1c(F)cccc1F [compound 67] | 98 | – | – | – | – | – | – | – | 7 | 44 | 99 | 0 | 0 | 80 | 0 | 99 | –
12 | 2-bromo-1-(4-chlorophenyl)-5-(2,6-difluorophenyl)-2-methyl-1H-imidazole [Compound 740] | 99 | – | – | – | – | – | – | – | 37 | 100 | 100 | 0 | 100 | 100 | 100 | 100 | –
